Assay results published in ChEMBL document CHEMBL1151797, “Discovery of inhibitors of the channel-activating protease prostasin (CAP1/PRSS8) utilizing structure-based design” (Bioorg Med Chem Lett, 2008).

Biological target: Prostasin (Homo sapiens, UniProt Q16651)
Test: Binding affinity to human prostasin

Sequence of Prostasin (Q16651 45-322 limits assumed, other chains not shown): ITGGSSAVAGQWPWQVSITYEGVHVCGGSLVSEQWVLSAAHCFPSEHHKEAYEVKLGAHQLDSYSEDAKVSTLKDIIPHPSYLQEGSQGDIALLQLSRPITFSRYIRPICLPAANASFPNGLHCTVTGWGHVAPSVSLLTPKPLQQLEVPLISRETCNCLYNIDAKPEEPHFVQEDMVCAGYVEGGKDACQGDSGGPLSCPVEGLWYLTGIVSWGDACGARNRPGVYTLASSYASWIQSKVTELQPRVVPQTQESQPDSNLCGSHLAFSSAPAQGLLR

Ki [nM]	Structure (SMILES)
101	NCCCC[C@H](NC(=O)[C@@H]1C[C@@H](OC(=O)N2CCCC2)CN1C(=O)[C@@H](CCc1ccccc1)NC(=O)OCc1ccccc1)C(=O)c1nc2ccccc2o1
15200	CC(C)C[C@H](NC(=O)[C@H](CCCCN)NC(=O)OCc1ccccc1)C(=O)N[C@@H](CCCCN)C(=O)c1nc2ccccc2o1
176	CS(=O)(=O)c1ccc(CNC(=O)O[C@@H]2C[C@@H](C(=O)N[C@@H](CCCCN)C(=O)c3nc4ccccc4o3)N(C(=O)[C@@H](CCc3ccccc3)NC(=O)OCc3ccccc3)C2)cc1
510	NCCCC[C@H](NC(=O)[C@@H]1C[C@@H](OC(=O)N2CCOCC2)CN1C(=O)[C@@H](CCc1ccccc1)NC(=O)OCc1ccccc1)C(=O)c1nc2ccccc2o1
27	NCCCC[C@H](NC(=O)[C@@H]1C[C@@H](OCc2ccc(F)cc2)CN1C(=O)[C@@H](CCc1ccccc1)NC(=O)OCc1ccccc1)C(=O)c1nc2ccccc2o1
60	NCCCC[C@H](NC(=O)[C@@H]1C[C@@H](OC(=O)NCc2ccccc2)CN1C(=O)[C@@H](CCc1ccccc1)NC(=O)OCc1ccccc1)C(=O)c1nc2ccccc2o1
5720	CC(C)C[C@H](NC(=O)[C@H](Cc1cnc[nH]1)NC(=O)OCc1ccccc1)C(=O)N[C@@H](CCCCN)C(=O)c1nc2ccccc2o1
28	NCCCC[C@H](NC(=O)[C@@H]1C[C@@H](OCc2ccc(C(F)(F)F)cc2)CN1C(=O)[C@@H](CCc1ccccc1)NC(=O)OCc1ccccc1)C(=O)c1nc2ccccc2o1
45	Cc1ccc(CO[C@@H]2C[C@@H](C(=O)N[C@@H](CCCCN)C(=O)c3nc4ccccc4o3)N(C(=O)[C@@H](CCc3ccccc3)NC(=O)OCc3ccccc3)C2)cc1
> 100000	NCCCC[C@H](NC(=O)[C@H](CCc1ccccc1)NC(=O)OCc1ccccc1)C(=O)c1nc2ccccc2o1

Continued, compound first:

Structure (SMILES)	Ki [nM]
NCCCC[C@H](NC(=O)[C@@H]1C[C@@H](OCC2CCCCC2)CN1C(=O)[C@@H](CCc1ccccc1)NC(=O)OCc1ccccc1)C(=O)c1nc2ccccc2o1	19
NCCCC[C@H](NC(=O)[C@@H]1C[C@@H](OCC2CCCC2)CN1C(=O)[C@@H](CCc1ccccc1)NC(=O)OCc1ccccc1)C(=O)c1nc2ccccc2o1	65
NCCCC[C@H](NC(=O)[C@@H]1[C@@H](c2ccccc2)CCN1C(=O)[C@@H](CCc1ccccc1)NC(=O)OCc1ccccc1)C(=O)c1nc2ccccc2o1	267
NCCCC[C@H](NC(=O)[C@@H]1C[C@@H](O)CN1C(=O)[C@@H](CCc1ccccc1)NC(=O)OCc1ccccc1)C(=O)c1nc2ccccc2o1	1040
CC(C)C[C@H](NC(=O)OCc1ccccc1)C(=O)N[C@@H](CCCCN)C(=O)c1nc2ccccc2o1	> 100000
NCCCC[C@H](NC(=O)[C@@H]1C[C@@H](OC(=O)Nc2ccccc2)CN1C(=O)[C@@H](CCc1ccccc1)NC(=O)OCc1ccccc1)C(=O)c1nc2ccccc2o1	130
NCCCC[C@H](NC(=O)[C@@H]1C[C@@H](OCc2cccc(C(F)(F)F)c2)CN1C(=O)[C@@H](CCc1ccccc1)NC(=O)OCc1ccccc1)C(=O)c1nc2ccccc2o1	41
NCCCC[C@H](NC(=O)[C@H](CCc1ccccc1)NC(=O)[C@H](Cc1cnc[nH]1)NC(=O)OCc1ccccc1)C(=O)c1nc2ccccc2o1	2100
C[C@H]1CCN(C(=O)[C@@H](CCc2ccccc2)NC(=O)OCc2ccccc2)[C@@H]1C(=O)N[C@@H](CCCCN)C(=O)c1nc2ccccc2o1	49
NCCCC[C@H](NC(=O)[C@@H]1C[C@@H](OCc2ccc(Cl)cc2)CN1C(=O)[C@@H](CCc1ccccc1)NC(=O)OCc1ccccc1)C(=O)c1nc2ccccc2o1	12
CN(C)C(=O)O[C@@H]1C[C@@H](C(=O)N[C@@H](CCCCN)C(=O)c2nc3ccccc3o2)N(C(=O)[C@@H](CCc2ccccc2)NC(=O)OCc2ccccc2)C1	1550
NCCCC[C@H](NC(=O)[C@@H]1C[C@@H](OC(=O)N2CCCCC2)CN1C(=O)[C@@H](CCc1ccccc1)NC(=O)OCc1ccccc1)C(=O)c1nc2ccccc2o1	29
NCCCC[C@H](NC(=O)[C@@H]1C[C@@H](OCc2ccccc2)CN1C(=O)[C@@H](CCc1ccccc1)NC(=O)OCc1ccccc1)C(=O)c1nc2ccccc2o1	40
NCCCC[C@H](NC(=O)[C@@H]1CCCN1C(=O)[C@@H](CCc1ccccc1)NC(=O)OCc1ccccc1)C(=O)c1nc2ccccc2o1	1400
